Values quoted from earlier work in patent US20260308141A1, “SYNTHESIS OF ORELLANINE” (ONCORENA AB, priority 2023, published 2026).

What was measured:
human renal cancer cells [1] = tested on: human renal cancer cells
human renal cancer cells [2] = tested on: human renal cancer cells; remark: listed apart in the source

Structure (SMILES): [O-][n+]1ccc(O)c(O)c1-c1c(O)c(O)cc[n+]1[O-] [Orellanine]
- progress of cell death (human renal cancer cells [1]; after transient exposure to Orellanine): progressed for many days
- killing of human renal cancer cells (human renal cancer cells [1]; cells derived from a primary tumor or from metastatic tumor tissue): killed them with great efficiency
- active uptake and retention by the cells (inferred from progressing cell death) (human renal cancer cells [2]; after transient exposure): actively taken up and retained by the cells
- uptake in human renal cancer cells (human renal cancer cells [2]; human renal cancer cells, primary or metastatic): taken up in human renal cancer cells
